Experimental data: patent publication US20160015619A1, “TRANSPARENT SOL, GEL COMPOSITION CONTAINING HIGH CONCENTRATIONS OF VITAMIN C AND VITAMIN C DERIVATIVE” (ABIO CO., LTD., priority 2013, published 2016)

Assay: Anti-oxidation experiment (DPPH free radical removing capability)
Assay type: biochemical
Procedure: The free radical removing capability was experimented using the embodiment 4 in Table 5. In case of the DPPH (1,1-diphenyl-2-picrylhydrazyl) used, the radical removing capability of radical sample which changes colors depending on the changes in oxidation/reduction environment was confirmed through the measurements of the O.D. value.
In details, the DPPH experiment sample was prepared by inputting the solution of the embodiment 4 in Table 5 into each well of the 96-well plate by 100 μl. The DPPH was added by 10 μl, and the mixture was placed at a room temperature for 30 minutes, and the absorbance at 517 nm was measured using a micro plate reader. At this time, the solution prepared by adding 10% of the distilled water instead of vitamin C into the solution of the embodiment 4 and the pure vitamin C were used as a control group.

## O=C1O[C@H]([C@@H](O)CO)C(O)=C1O [Control group 2 (vitamin C), L-ascorbic acid]
  effect on the activation of the anti-oxidation (in words): high effect on the activation of the anti-oxidation
Room temperature 30 minutes, absorbance at 517 nm
  Activation (%) of anti-oxidation: 90.8%
